Paper doi:10.64898/2025.12.08.692997v2 (biorxiv, 2025)
Where a name gives a salt, the structure may show the parent alone. Read-outs that look alike come from different tables or passages of the source.

Tests used:
Test in all cases: biochemical
[1] = molecular target: T1, human EphB2-His ectodomain - human EphrinB2-Fc ectodomain (EphB2-EphrinB2 tetramer) (Homo sapiens, UniProt P29323+P52799)
[2] = molecular target: T1, human EphB2-His ectodomain - human EphrinB2-Fc ectodomain (EphB2-EphrinB2 tetramer); remark: listed apart in the source
[3] = molecular target: T1, human EphB2-His ectodomain - human EphrinB2-Fc ectodomain (EphB2-EphrinB2 tetramer); settings: Octet IC50 data EB2-EphB2 (Absolute)
[4] = molecular target: T1, human EphB2-His ectodomain - human EphrinB2-Fc ectodomain (EphB2-EphrinB2 tetramer); settings: Octet IC50 data EB2-EphB2 (Relative)

T1 sequence (P52799 28-229): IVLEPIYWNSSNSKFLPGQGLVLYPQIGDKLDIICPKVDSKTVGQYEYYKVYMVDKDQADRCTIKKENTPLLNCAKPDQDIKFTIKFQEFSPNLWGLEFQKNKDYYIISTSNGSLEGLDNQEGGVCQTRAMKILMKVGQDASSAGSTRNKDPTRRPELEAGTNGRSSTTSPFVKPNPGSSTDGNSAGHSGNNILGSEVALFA
T1 sequence (P29323 19-543): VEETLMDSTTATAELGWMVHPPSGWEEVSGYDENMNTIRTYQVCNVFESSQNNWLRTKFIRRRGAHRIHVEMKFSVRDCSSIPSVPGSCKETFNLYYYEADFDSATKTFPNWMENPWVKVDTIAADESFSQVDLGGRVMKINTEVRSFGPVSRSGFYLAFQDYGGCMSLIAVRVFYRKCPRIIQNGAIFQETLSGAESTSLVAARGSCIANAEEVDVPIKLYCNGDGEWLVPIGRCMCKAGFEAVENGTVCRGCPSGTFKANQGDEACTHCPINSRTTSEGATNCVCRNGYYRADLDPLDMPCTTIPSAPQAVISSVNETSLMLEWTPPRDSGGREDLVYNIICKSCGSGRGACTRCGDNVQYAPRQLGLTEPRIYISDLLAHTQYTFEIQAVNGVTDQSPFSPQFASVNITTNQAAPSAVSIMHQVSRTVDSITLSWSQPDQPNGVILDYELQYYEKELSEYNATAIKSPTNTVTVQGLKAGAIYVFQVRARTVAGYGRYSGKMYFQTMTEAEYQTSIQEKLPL

SMILES	IC50 [1]	IC50 [2]	IC50 [3]	IC50 [4]
CN(C)CCC(c1ccc(Cl)cc1)c1ccccn1 (stereo not drawn) [compound 6, Chloropheniramine maleate]	> 100000 nM			
Clc1cc2c(c3ncccc13)OCN(Cc1cccnc1)C2 [compound 2, 6-chloro-3-(pyridin-3-ylmethyl)-3,4-dihydro-2H-[1,3]oxazino[5,6-h]quinoline]			850 nM	740 nM
CC(C)(C)N1COc2c(cc(Cl)c3cccnc23)C1 [compound 3, 3-(tert-butyl)-6-chloro-3,4-dihydro-2H-[1,3]oxazino[5,6-h]quinoline]			1950 nM	1780 nM
Clc1cc2c(c3ncccc13)OCN(C1CCCC1)C2 [1c, 6-chloro-3-cyclopentyl-3,4-dihydro-2H-[1,3]oxazino[5,6-h]quinoline]			850 nM	760 nM
CC1(C)CC(N2COc3c(cc(Cl)c4cccnc34)C2)CC(C)(C)N1 [compound 5, 6-chloro-3-(2,2,6,6-tetramethylpiperidin-4-yl)-3,4-dihydro-2H-[1,3]oxazino[5,6-h]quinoline]			1740 nM	1150 nM
Clc1cc2c(c3ncccc13)OCN(CC1CCCO1)C2 (stereo not drawn) [4a, 6-chloro-3-((tetrahydrofuran-2-yl)methyl)-3,4-dihydro-2H-[1,3]oxazino[5,6-h]quinoline]			810 nM	720 nM
CCN(CC)CC(=O)Nc1c(C)cccc1C [compound 4, Lidocaine hydrochloride monohydrate]	> 100000 nM			
Clc1cc2c(c3ncccc13)OCN(C1CCCC1)C2 [1b, 6-chloro-3-cyclopentyl-3,4-dihydro-2H-[1,3]oxazino[5,6-h]quinoline]			1380 nM	1200 nM
CC(C)Cc1ccc(C(C)C(=O)O)cc1 (stereo not drawn) [compound 3, Ibuprofen]	> 100000 nM			
O=C(O)c1ccc(-n2nc(-c3ccccc3O)nc2-c2ccccc2O)cc1 [compound 3, Deferasirox]		> 100000 nM		
CNC[C@H](O)c1cccc(O)c1 [compound 5, Phenylephrine hydrochloride]	> 100000 nM			
CC(=O)Oc1ccccc1C(=O)O [compound 1, Aspirin]	> 100000 nM			
CC(=O)Nc1ccc(O)cc1 [compound 2, Acetaminophen]	> 100000 nM			

Other lines, results leading:

IC50 [1]	IC50 [2]	IC50 [3]	IC50 [4]	SMILES
> 100000 nM				N[C@@H](Cc1ccc(O)cc1)C(=O)O [compound 10, L-Tyrosine]
	> 100000 nM			COCCN(CCCCc1ccc2c(n1)NCCC2)CC[C@H](Nc1ncnc2ccccc12)C(=O)O [compound 9, Bexotegrast]
		660 nM	590 nM	Clc1cc2c(c3ncccc13)OCN(CCC1=CCCCC1)C2 [compound 12, 6-chloro-3-(2-(cyclohex-1-en-1-yl)ethyl)-3,4-dihydro-2H-[1,3]oxazino[5,6-h]quinoline]
> 100000 nM				O=C(O)Cc1ccccc1Nc1c(Cl)cccc1Cl [compound 9, Diclofenac sodium salt]
		1150 nM	1070 nM	Clc1cc2c(c3ncccc13)OCN(CCc1ccccc1)C2 [compound 11, 6-chloro-3-phenethyl-3,4-dihydro-2H-[1,3]oxazino[5,6-h]quinoline]
		1150 nM	1050 nM	CCCCN1COc2c(cc(Cl)c3cccnc23)C1 [compound 8, 3-butyl-6-chloro-3,4-dihydro-2H-[1,3]oxazino[5,6-h]quinoline]
		890 nM	740 nM	CC(c1ccccc1)N1COc2c(cc(Cl)c3cccnc23)C1 (stereo not drawn) [compound 10, 6-chloro-3-(1-phenylethyl)-3,4-dihydro-2H-[1,3]oxazino[5,6-h]quinoline]
> 100000 nM				CCc1ccc(CCOc2ccc(CC3SC(=O)NC3=O)cc2)nc1 (stereo not drawn) [compound 7, Pioglitazone hydrochloride]
> 100000 nM				Nc1nc2ncc(CNc3ccc(C(=O)N[C@@H](CCC(=O)O)C(=O)O)cc3)nc2c(=O)[nH]1 [compound 12, Folic acid]
> 100000 nM				Cc1ncc(CO)c(CO)c1O [compound 8, Pyridoxine hydrochloride]
